Measurements: patent US20230150986A1, “ANTAGONISTS OF THE MUSCARINIC ACETYLCHOLINE RECEPTOR M4” (Vanderbilt University, priority 2019, published 2023)

Key:
[1] = target: T1, cytochrome P450 1A2 (Homo sapiens, UniProt P05177); experiment: Cytochrome P450 cocktail inhibition assay, 1A2 (phenacetin); assay type: in vitro ADME; settings: human liver microsomes 0.1 mg/mL; read-out: CYP Inhibition (1A2)
T1 construct: human liver microsomes (HLM; 0.1 mg/mL); from tissue; host or cells: human liver microsomes
T1 sequence (P05177 1-516): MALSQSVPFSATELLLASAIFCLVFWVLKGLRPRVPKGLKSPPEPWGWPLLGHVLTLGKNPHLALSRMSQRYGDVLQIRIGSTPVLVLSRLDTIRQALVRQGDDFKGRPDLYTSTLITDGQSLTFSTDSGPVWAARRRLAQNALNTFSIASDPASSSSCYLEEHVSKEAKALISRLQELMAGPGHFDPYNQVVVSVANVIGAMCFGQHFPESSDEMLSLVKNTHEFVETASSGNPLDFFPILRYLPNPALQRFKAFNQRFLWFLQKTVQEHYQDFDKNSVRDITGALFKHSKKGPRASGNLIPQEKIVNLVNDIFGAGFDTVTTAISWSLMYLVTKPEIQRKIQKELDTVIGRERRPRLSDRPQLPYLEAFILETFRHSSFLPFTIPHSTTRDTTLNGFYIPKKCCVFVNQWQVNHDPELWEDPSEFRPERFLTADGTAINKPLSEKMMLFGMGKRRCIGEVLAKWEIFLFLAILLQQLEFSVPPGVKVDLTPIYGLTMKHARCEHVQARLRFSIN
Protocol: (§1) Solutions of substrates for cytochrome P450 enzymes (1A2: Phenacetin, 10 μM; 2C9: Diclofenac, 5 μM; 2D6: Dextromethorphan, 5 μM; 3A4: Midazolam, 2 μM; as a mixture), test compound (VU6028418; multiple concentrations), and the positive control for pan-P450 inhibition (miconazole; multiple concentrations) were prepared. A reaction mixture of assay buffer (100 mM Kpi at pH 7.4), human liver microsomes (HLM; 0.1 mg/mL), and the substrate mixture were aliquoted into a 96-deepwell plate. The test compound and control were then added to the plate such that the final concentration of test compound ranged from 0.1-30 μM (two replicates per concentration). The assay plate was vortexed (briefly) and pre-incubated at 37° C. in an orbital shaker for 15 minutes. The reaction was initiated by addition of NADPH (1 mM, final concentration) and continued for 8 min before it was quenched by acetonitrile (2× volume) containing an LCMS internal standard (carbamazepine, 50 nM). The plate was then centrifuged (4000 rcf, 4° C., 10 min), and the resulting supernatant was diluted with water (1× volume) for LC-MS/MS. Assay samples were analyzed via electrospray ionization on an AB Sciex API-4000 (Foster City, Calif.) triple-quadrupole mass spectrometer coupled to Agilent Technologies 1290 Infinity series pumps (Santa Clara, Calif.), and a Leap Technologies CTC PAL auto -sampler (Carrboro, NC). Analytes were separated by gradient elution on a Phenomenex Kinetex (C18 2.1×50 mm 5 μm) column (Torrance, Calif.) thermostated at 40° C. The HPLC mobile phase A was 0.1% formic acid in water (pH unadjusted), and the mobile phase B was 0.1% formic acid in acetonitrile (pH unadjusted). […] The total run time was 2.5 min and the HPLC flow rate was 0.5 mL/min. The source temperature was set at 500° C. and mass spectral analyses were performed using multiple reaction monitoring (MRM) with mass transitions specific to each substrate's metabolite utilizing a Turbo-Ionspray® source in positive ionization mode (5.0 kV spray voltage). The test compound and control IC50 values for each enzyme were obtained by quantitating the inhibition of metabolite formation for each substrate. A 0 μM test compound (or control) conditions represented 100% enzymatic activity, and the effect of increasing test compound concentrations on enzymatic activity was then calculated from the % of control activity. Inhibition curves were fitted using XLfit 5.2.2 (four-parameter logistic model, equation 201) in order to calculate the concentration that produced half-maximal inhibition (IC50) of each enzyme.

[2] = target: T2, cytochrome P450 3A4 (Homo sapiens, UniProt P08684); experiment: Cytochrome P450 cocktail inhibition assay, 3A4 (midazolam); assay type: in vitro ADME; settings: human liver microsomes 0.1 mg/mL; read-out: CYP Inhibition (3A4)
T2 construct: human liver microsomes (HLM; 0.1 mg/mL); from tissue; host or cells: human liver microsomes
T2 sequence (P08684 whole entry): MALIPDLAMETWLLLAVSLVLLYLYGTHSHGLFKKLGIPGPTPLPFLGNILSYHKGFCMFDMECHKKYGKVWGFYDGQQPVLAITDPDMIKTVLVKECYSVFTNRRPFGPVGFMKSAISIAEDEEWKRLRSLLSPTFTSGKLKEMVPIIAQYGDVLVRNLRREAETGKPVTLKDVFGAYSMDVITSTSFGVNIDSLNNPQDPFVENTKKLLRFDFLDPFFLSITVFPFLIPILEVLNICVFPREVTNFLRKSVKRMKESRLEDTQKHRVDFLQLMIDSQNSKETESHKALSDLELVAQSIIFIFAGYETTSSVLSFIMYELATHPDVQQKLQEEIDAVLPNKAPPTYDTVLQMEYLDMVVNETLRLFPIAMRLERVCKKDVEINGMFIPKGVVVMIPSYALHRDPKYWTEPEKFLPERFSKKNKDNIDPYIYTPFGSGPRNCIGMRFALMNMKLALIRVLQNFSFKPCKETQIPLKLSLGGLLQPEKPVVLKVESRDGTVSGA
Protocol: as §1

IC50 [1] [µM]	IC50 [2] [µM]	Structure (SMILES)
22.6	> 30	Fc1cc(F)c(F)c(-c2ccc(N[C@H]3C[C@@H]4CN(Cc5ccccn5)C[C@@H]4C3)nn2)c1 [Compound 2, (3aR,5s,6aS)-2-(pyridin-2-ylmethyl)-N-(6-(2,3,5-trifluorophenyl)pyridazin-3-yl)octahydrocyclopenta[c]pyrrol-5-amine]
> 30	> 30	Fc1cc(F)c(F)c(-c2ccc(N[C@H]3C[C@@H]4CN(CC5CCOCC5)C[C@@H]4C3)nn2)c1 [Compound 1, (3aR,5s,6aS)-2-((tetrahydro-2H-pyran-4-yl)methyl)-N-(6-(2,3,5-trifluorophenyl)pyridazin-3-yl)octahydrocyclopenta[c]pyrrol-5-amine]
